The values that follow come from patent publication US9051310B2, “Nicotinamide derivative or salt thereof” (FUJIFILM Corporation, priority 2011, dated 2015).

Where only a bound is given, the exact number is not on record here.

The target in this test is T1, glutathione S-transferase (GST)-linked full-length human Syk protein (Homo sapiens, UniProt P43405).
T1 construct: glutathione S-transferase (GST)-linked full-length human Syk protein; purchased Carna Biosciences; host or cells: Baculovirus expression system
The experiment in a line: Syk enzyme assay. The class given is biochemical. As to conditions: 0.83 nM Syk, time-resolved fluorescence; read-out: IC50 of Syk-inhibitory activity. Summed up: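 Phosphotyrosine on a biotin-peptide substrate (0.5 μM) was read by time-resolved fluorescence at 615 and 665 nm with Eu-anti-pTyr antibody and APC-streptavidin after 1 h EDTA stop.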

Broadly, the IC50 is the point on the concentration scale where inhibition reaches its midpoint.

Take `CC[C@H](N)[C@H](Nc1nc(Nc2ccc3c(c2)c(C)nn3C)c(C(N)=O)cc1F)C1CC1` [Example 2-545, 6-(((1R,2S)-2-amino-1-cyclopropylbutyl)amino)-2-((1,3-dimethyl-1H-indazol-5-yl)amino)-5-fluoronicotinamide]: the IC50 was less than 10 nM.
In the case of `COc1cc(Nc2nc(N[C@H](c3ccc(C(F)(F)F)cc3)[C@H](C)N)c(F)cc2C(N)=O)cc(OC)n1` [Example 2-355, 6-(((1R,2S)-2-amino-1-(4-(trifluoromethyl)phenyl)propyl)amino)-2-((2,6-dimethoxypyridin-4-yl)amino)-5-fluoronicotinamide] it was less than 10 nM; in that of `CC[C@@H](Nc1nc(Nc2cnc(OC)c(F)c2)c(C(N)=O)cc1F)[C@H](C)N` [Example 2-64, 6-(((2S,3R)-2-aminopentan-3-yl)amino)-5-fluoro-2-((5-fluoro-6-methoxypyridin-3-yl)amino)nicotinamide], 10 to 50 nM.
Take `CC[C@@H](Nc1nc(Nc2cnc(OCCOC)c(-n3nccn3)c2)c(C(N)=O)cc1F)[C@H](C)N` [Example 2-202, 6-(((2S,3R)-2-aminopentan-3-yl)amino)-5-fluoro-2-((6-(2-methoxyethoxy)-5-(2H-1,2,3-triazol-2-yl)pyridin-3-yl)amino)nicotinamide]: the IC50 lay in the range of 50 to 100 nM.
In the case of `CC[C@H](N)[C@@H](CC)Nc1nc(Nc2cnc3c(c2)c(OC)nn3C)c(C(N)=O)cc1F` [Example 2-258, 6-(((3R,4S)-4-aminohexan-3-yl)amino)-5-fluoro-2-((3-methoxy-1-methyl-1H-pyrazolo[3,4-b]pyridin-5-yl)amino)nicotinamide] it was 10 to 50 nM.
The figure for `CN(C)c1nn(C)c2ncc(Nc3nc(N[C@@H]4CCOC[C@@H]4N)c(F)cc3C(N)=O)cc12` [Example 2-335, 6-(((3R,4R)-3-aminotetrahydro-2H-pyran-4-yl)amino)-2-((3-(dimethylamino)-1-methyl-1H-pyrazolo[3,4-b]pyridin-5-yl)amino)-5-fluoronicotinamide] is 10 to 50 nM; for `COCCn1nc(OC(F)F)c2cc(Nc3nc(N[C@H](C4CCC4)[C@H](C)N)c(F)cc3C(N)=O)ccc21` [Example 2-543, 6-(((1R,2S)-2-amino-1-cyclobutylpropyl)amino)-2-((3-(difluoromethoxy)-1-(2-methoxyethyl)-1H-indazol-5-yl)amino)-5-fluoronicotinamide] it is less than 10 nM; for `CC(C)C[C@H](CN)Nc1nc(Nc2cnc(N3CCOCC3)c(F)c2)c(C(N)=O)cc1F` [Example 2-261, (R)-6-((1-amino-4-methylpentan-2-yl)amino)-5-fluoro-2-((5-fluoro-6-morpholinopyridin-3-yl)amino)nicotinamide] it is 10 to 50 nM.
In the case of `CCn1ncc2c(Nc3nc(N[C@H](c4ccc(Cl)s4)[C@H](C)N)c(F)cc3C(N)=O)cccc21` [Example 2-512, 6-(((1S,2S)-2-amino-1-(5-chlorothiophen-2-yl)propyl)amino)-2-((1-ethyl-1H-indazol-4-yl)amino)-5-fluoronicotinamide] it was less than 10 nM.
On to `COc1cc(Nc2nc(N[C@H](c3ccccc3)[C@H](C)N)c(F)cc2C(N)=O)cc(OC)n1` [Example 2-356, 6-(((1R,2S)-2-amino-1-phenylpropyl)amino)-2-((2,6-dimethoxypyridin-4-yl)amino)-5-fluoronicotinamide], for which the 50% inhibitory concentration (IC50) is 10 to 50 nM.
The figure for `CNc1n[nH]c2ccc(Nc3nc(N[C@H](C4CC4)[C@H](C)N)c(F)cc3C(N)=O)cc12` [Example 2-490, 6-(((1R,2S)-2-amino-1-cyclopropylpropyl)amino)-5-fluoro-2-((3-(methylamino)-1H-indazol-5-yl)amino)nicotinamide] is 10 to 50 nM.
The figure for `C[C@H](N)[C@H](Nc1nc(Nc2ccc3[nH]nc(N(C)C)c3c2)c(C(N)=O)cc1F)C1CC1` [Example 2-494, 6-(((1R,2S)-2-amino-1-cyclopropylpropyl)amino)-2-((3-(dimethylamino)-1H-indazol-5-yl)amino)-5-fluoronicotinamide] is less than 10 nM; for `COc1cc(Nc2nc(N[C@H](c3ccccc3F)[C@H](C)N)c(F)cc2C(N)=O)cc(OC)n1` [Example 2-411, 6-(((1R,2S)-2-amino-1-(2-fluorophenyl)propyl)amino)-2-((2,6-dimethoxypyridin-4-yl)amino)-5-fluoronicotinamide] it is less than 10 nM; for `CC(C)C[C@H](CN)Nc1nc(Nc2cncc3c2cnn3CC(F)F)c(C(N)=O)cc1F` [Example 2-395, (R)-6-((1-amino-4-methylpentan-2-yl)amino)-2-((1-(2,2-difluoroethyl)-1H-pyrazolo[3,4-c]pyridin-4-yl)amino)-5-fluoronicotinamide] it is less than 10 nM.
With `CCC[C@@H](Nc1nc(Nc2cnc(OC)c(F)c2)c(C(N)=O)cc1F)[C@H](C)N` [Example 2-65, 6-(((2S,3R)-2-aminohexan-3-yl)amino)-5-fluoro-2-((5-fluoro-6-methoxypyridin-3-yl)amino)nicotinamide], the IC50 lay within 10 to 50 nM.
On to `COCCn1ncc2c(Nc3nc(N[C@H](C4CC4)[C@H](C)N)c(F)cc3C(N)=O)cncc21` [Example 2-388, 6-(((1R,2S)-2-amino-1-cyclopropylpropyl)amino)-5-fluoro-2-((1-(2-methoxyethyl)-1H-pyrazolo[3,4-c]pyridin-4-yl)amino)nicotinamide], for which the IC50 is less than 10 nM.
In the case of `CC[C@@H](Nc1nc(Nc2ccc3c(c2)c(NCCOC)nn3C)c(C(N)=O)cc1F)[C@H](C)N` [Example 2-463, 6-(((2S,3R)-2-aminopentan-3-yl)amino)-5-fluoro-2-((3-((2-methoxyethyl)amino)-1-methyl-1H-indazol-5-yl)amino)nicotinamide] it was 10 to 50 nM; in that of `NC(=O)c1cc(F)c(N[C@@H]2CCCC[C@@H]2N)nc1Nc1ccc(F)c(F)c1` [Example 2-447, 6-(((1R,2S)-2-aminocyclohexyl)amino)-2-((3,4-difluorophenyl)amino)-5-fluoronicotinamide], less than 10 nM.
Regarding `CC(C)Oc1cccc(Nc2nc(N[C@@H]3CCCC[C@@H]3N)c(F)cc2C(N)=O)c1` [Example 2-446, 6-(((1R,2S)-2-aminocyclohexyl)amino)-5-fluoro-2-((3-isopropoxyphenyl)amino) nicotinamide], the IC50 was less than 10 nM.
With `CC[C@H](N)[C@@H](C)Nc1nc(Nc2ccc3[nH]nc(NC)c3c2)c(C(N)=O)cc1F` [Example 2-491, 6-(((2R,3S)-3-aminopentan-2-yl)amino)-5-fluoro-2-((3-(methylamino)-1H-indazol-5-yl)amino)nicotinamide], the half-inhibitory concentration (IC50) lay in the range of 10 to 50 nM.
In the case of `CCOC[C@@H](Nc1nc(Nc2cccc3c2cnn3CCOC)c(C(N)=O)cc1F)[C@H](C)N` [Example 2-310, 6-(((2S,3S)-3-amino-1-ethoxybutan-2-yl)amino)-5-fluoro-2-((1-(2-methoxyethyl)-1H-indazol-4-yl)amino)nicotinamide] it was 50 to 100 nM; in that of `COCCn1ncc2c(Nc3nc(N[C@H](CC(C)C)[C@H](C)N)c(F)cc3C(N)=O)cncc21` [Example 2-390, 6-(((2S,3R)-2-amino-5-methylhexan-3-yl)amino)-5-fluoro-2-((1-(2-methoxyethyl)-1H-pyrazolo[3,4-c]pyridin-4-yl)amino)nicotinamide], less than 10 nM; in that of `CCOc1ncc(Nc2nc(N[C@H](CC)[C@H](C)N)c(F)cc2C(N)=O)cc1-n1cccn1` [Example 2-200, 6-(((2S,3R)-2-aminopentan-3-yl)amino)-2-((6-ethoxy-5-(1H-pyrazol-1-yl)pyridin-3-yl)amino)-5-fluoronicotinamide], 10 to 50 nM.
Turning to `C[C@H](N)[C@H](Nc1nc(Nc2ccc3c(c2)c(N(C)C)nn3C)c(C(N)=O)cc1F)c1cc(F)cc(F)c1` [Example 2-549, 6-(((1R,2S)-2-amino-1-(3,5-difluorophenyl)propyl)amino)-2-((3-(dimethylamino)-1-methyl-1H-indazol-5-yl)amino)-5-fluoronicotinamide], the IC50 fell in the range of 10 to 50 nM.
The figure for `COCCn1nc(N(C)C)c2cc(Nc3nc(N[C@H](CC(C)C)[C@H](C)N)c(F)cc3C(N)=O)ccc21` [Example 2-505, 6-(((2S,3R)-2-amino-5-methylhexan-3-yl)amino)-2-((3-(dimethylamino)-1-(2-methoxyethyl)-1H-indazol-5-yl)amino)-5-fluoronicotinamide] is 10 to 50 nM.
In the case of `CC[C@H](N)[C@H](Nc1nc(Nc2cnc(C)c(F)c2)c(C(N)=O)cc1F)C1CC1` [Example 2-382, 6-(((1R,2S)-2-amino-1-cyclopropylbutyl)amino)-5-fluoro-2-((5-fluoro-6-methylpyridin-3-yl)amino)nicotinamide] it was 10 to 50 nM; in that of `CNc1nn(C)c2ccc(Nc3nc(N[C@H](C4CC4)[C@H](C)N)c(F)cc3C(N)=O)cc12` [Example 2-498, 6-(((1R,2S)-2-amino-1-cyclopropylpropyl)amino)-5-fluoro-2-((1-methyl-3-(methylamino)-1H-indazol-5-yl)amino)nicotinamide], less than 10 nM.
The figure for `COCCn1nc(OC)c2cc(Nc3nc(N[C@H](C4CCC4)[C@H](C)N)c(F)cc3C(N)=O)ccc21` [Example 2-540] is less than 10 nM; for `CCC[C@@H](Nc1nc(Nc2ccc3c(c2)c(OC(F)F)nn3CCOC)c(C(N)=O)cc1F)[C@H](C)N` [Example 2-353, 6-(((2S,3R)-2-aminohexan-3-yl)amino)-2-((3-(difluoromethoxy)-1-(2-methoxyethyl)-1H-indazol-5-yl)amino)-5-fluoronicotinamide] it is less than 10 nM.
As for `COc1cc(Nc2nc(N[C@H](C(C)C)[C@H](C)N)c(F)cc2C(N)=O)cc(OC)n1` [Example 2-108, 6-(((2S,3R)-2-amino-4-methylpentan-3-yl)amino)-2-((2,6-dimethoxypyridin-4-yl)amino)-5-fluoronicotinamide], the IC50 lay in the range of 50 to 100 nM.
